In PubChem BioAssay (NCI):
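Grown in 96-well plates, cells were treated for 48 hours with each compound at five concentrations. Insufficient inhibition: endpoint recorded as highest concentration tested. TGI is the concentration that stops growth completely.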

Key:
Assay in all cases: NCI tumour cell line growth inhibition, 48 h
DLD-1 colon = test system: DLD-1 colon
DMS 273 small cell lung = test system: DMS 273 small cell lung
HOP-18 NSCLC = test system: HOP-18 NSCLC
P388 leukemia = test system: P388 leukemia
P388/ADR leukemia = test system: P388/ADR leukemia
SN12K1 renal = test system: SN12K1 renal
SNB-78 CNS = test system: SNB-78 CNS
LXFL 529 NSCLC = test system: LXFL 529 NSCLC

CCOC(=O)/C=C/c1c(C)[nH]c(=O)[nH]c1=O
TGI (DLD-1 colon): > 250 µM
TGI (DMS 273 small cell lung): > 250 µM
TGI (HOP-18 NSCLC): > 250 µM
TGI (P388 leukemia): > 141 µM
TGI (P388/ADR leukemia): > 158 µM
TGI (SN12K1 renal): > 250 µM
TGI (SNB-78 CNS): > 250 µM

O=C(NN1C(=O)C(Cl)C1c1cccc([N+](=O)[O-])c1)c1ccccc1O (centres undefined)
TGI (LXFL 529 NSCLC): > 100 µM

C/C(=N\NC(=S)N1CCC(N2CCCCC2)CC1)c1ccccn1
TGI (DLD-1 colon): > 100 µM
TGI (DMS 273 small cell lung): 9.43 µM
TGI (HOP-18 NSCLC): 14.5 µM
TGI (LXFL 529 NSCLC): 13.6 µM
TGI (SNB-78 CNS): 27.5 µM

O=C1C(CO)=C[C@H](O)[C@H]2O[C@@H]12
TGI (DLD-1 colon): 227 µM
TGI (DMS 273 small cell lung): 485 µM
TGI (HOP-18 NSCLC): > 625 µM
TGI (P388 leukemia): 195 µM
TGI (P388/ADR leukemia): 225 µM
TGI (SN12K1 renal): 278 µM
TGI (SNB-78 CNS): 480 µM

c1cc2c3c(c1)c1cc4c(cc1c[n+]3CC2)OCO4
TGI (DLD-1 colon): 121 µM
TGI (DMS 273 small cell lung): 30.5 µM
TGI (HOP-18 NSCLC): 88.4 µM
TGI (P388 leukemia): 4.22 µM
TGI (P388/ADR leukemia): > 225 µM
TGI (SN12K1 renal): 12.2 µM
TGI (SNB-78 CNS): 47.1 µM

COc1cc(-c2ccc(N=Nc3ccc4c(S(=O)(=O)O)cc(S(=O)(=O)O)c(N)c4c3O)c(OC)c2)ccc1N=Nc1ccc2c(S(=O)(=O)O)cc(S(=O)(=O)O)c(N)c2c1O
TGI (DLD-1 colon): > 100 µM
TGI (DMS 273 small cell lung): > 100 µM
TGI (HOP-18 NSCLC): 98.1 µM
TGI (P388 leukemia): > 100 µM
TGI (P388/ADR leukemia): > 100 µM
TGI (SN12K1 renal): > 100 µM
TGI (SNB-78 CNS): > 100 µM
